Data: ChEMBL document CHEMBL1201862, “PubChem BioAssay data set” (2004)
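Exposure lasted 48 hours, with cells grown in 96-well plates and compounds tested at five concentrations. GI50 marks 50% less growth.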 Activity calls are given as the source filed them. Cut-off read from the data, not from the text of the source: active = GI50 up to about 1.1 µM and inactive = higher.

Legend:
Test in all cases: inhibition of tumour cell growth, NCI panel, 48 h
[1] = system: SK-OV-3
[2] = system: CAKI-1
[3] = system: HCT-116
[4] = system: LOX IMVI
[5] = system: SF-295
[6] = system: COLO 205
[7] = system: TK-10
[8] = system: SNB-19
[9] = system: UO-31
[10] = system: NCI-H460
[11] = system: K562
[12] = system: MOLT-4
[13] = system: MCF7
[14] = system: KM12
[15] = system: HOP-62
[16] = system: RPMI-8226
[17] = system: RXF 393
[18] = system: M14
[19] = system: SK-MEL-5
[20] = system: OVCAR-4
[21] = system: MDA-MB-435
[22] = system: IGROV-1
[23] = system: UACC-62
[24] = system: OVCAR-8
[25] = system: DU-145
[26] = system: Malme-3M
[27] = system: HOP-92
[28] = system: UACC-257
[29] = system: U-251
[30] = system: MDA-MB-231
[31] = system: SNB-75
[32] = system: ACHN
[33] = system: CCRF-CEM
[34] = system: HCT-15
[35] = system: A549
[36] = system: SK-MEL-2
[37] = system: EKVX
[38] = system: A498
[39] = system: SW-620
[40] = system: NCI-H226
[41] = system: NCI-H522
[42] = system: PC-3
[43] = system: OVCAR-3
[44] = system: SN12C
[45] = system: HL-60
[46] = system: Hs-578T
[47] = system: 786-0
[48] = system: MDA-N
[49] = system: NCI-H23
[50] = system: HCC 2998
[51] = system: BT-549
[52] = system: SR
[53] = system: SF-268
[54] = system: T47D
[55] = system: HT-29
[56] = system: SK-MEL-28
[57] = system: OVCAR-5
[58] = system: NCI/ADR-RES
[59] = system: SF-539

For `CCC/C(Cl)=N\OC(=O)Nc1ccc(F)cc1`, the GI50 [1] was > 45.1 µM (inactive), the GI50 [2] was 1.91 µM (inactive) and the GI50 [3] was 16.7 µM (inactive). For the same compound, the GI50 [4] was 4.15 µM (inactive), the GI50 [5] was > 100 µM (inactive) and the GI50 [6] was 3.16 µM (inactive). For the same compound, the GI50 [7] was 15.7 µM (inactive), the GI50 [8] was 19.2 µM (inactive) and the GI50 [9] was 17.7 µM (inactive). The GI50 [10] was > 100 µM (inactive), the GI50 [11] was 1.89 µM (inactive) and the GI50 [12] was 2.47 µM (inactive). The GI50 [13] was 20 µM (inactive), the GI50 [14] was 20.6 µM (inactive) and the GI50 [15] was 19.2 µM (inactive). For the same compound, the GI50 [16] was 6.01 µM (inactive), the GI50 [17] was 18.4 µM (inactive) and the GI50 [18] was 14.6 µM (inactive). For the same compound, the GI50 [19] was 13.3 µM (inactive), the GI50 [20] was 16.9 µM (inactive) and the GI50 [21] was 16.5 µM (inactive). For the same compound, the GI50 [22] was 17.3 µM (inactive), the GI50 [23] was 13.6 µM (inactive) and the GI50 [24] was 25.4 µM (inactive). For the same compound, the GI50 [25] was 17 µM (inactive), the GI50 [26] was 6.87 µM (inactive) and the GI50 [27] was 4.43 µM (inactive). For the same compound, the GI50 [28] was 16.7 µM (inactive), the GI50 [29] was 18.2 µM (inactive) and the GI50 [30] was 17.9 µM (inactive). The GI50 [31] was > 42.7 µM (inactive), the GI50 [32] was 12.3 µM (inactive) and the GI50 [33] was 1.63 µM (inactive). For the same compound, the GI50 [34] was 5.82 µM, the GI50 [35] was 52.8 µM (inactive) and the GI50 [36] was 18.2 µM (inactive). The GI50 [37] was 17.3 µM (inactive), the GI50 [38] was 16.9 µM (inactive) and the GI50 [39] was 7 µM (inactive). For the same compound, the GI50 [40] was 19.7 µM (inactive), the GI50 [41] was 1.87 µM (inactive) and the GI50 [42] was 17.3 µM (inactive). For the same compound, the GI50 [43] was 5.24 µM (inactive), the GI50 [44] was 16.7 µM (inactive) and the GI50 [45] was 1.87 µM (inactive). For the same compound, the GI50 [46] was 41.5 µM (inactive), the GI50 [47] was 6.5 µM (inactive) and the GI50 [48] was 16.3 µM (inactive). For the same compound, the GI50 [49] was 20.3 µM (inactive), the GI50 [50] was 17.6 µM (inactive) and the GI50 [51] was 15.1 µM (inactive). The GI50 [52] was 2.18 µM (inactive), the GI50 [53] was 26.1 µM (inactive) and the GI50 [54] was 7.24 µM (inactive). The GI50 [55] was 28.3 µM (inactive), the GI50 [56] was 18.5 µM (inactive) and the GI50 [57] was 18.7 µM (inactive). The GI50 [58] was 21.1 µM (inactive).

With `Cc1cc(=O)nc(S(=O)(=O)NC(=O)Nc2cccc(Cl)c2)[nH]1` the GI50 [1] was > 100 µM (inactive), the GI50 [59] was > 100 µM (inactive) and the GI50 [3] was > 100 µM (inactive). For the same compound, the GI50 [4] was > 100 µM (inactive), the GI50 [5] was 16.2 µM (inactive) and the GI50 [6] was > 100 µM (inactive). For the same compound, the GI50 [7] was > 100 µM (inactive), the GI50 [8] was > 100 µM (inactive) and the GI50 [9] was 3.43 µM (inactive). For the same compound, the GI50 [10] was > 100 µM (inactive), the GI50 [11] was > 100 µM (inactive) and the GI50 [12] was 32.7 µM (inactive). The GI50 [13] was > 100 µM (inactive), the GI50 [14] was 14.7 µM (inactive) and the GI50 [15] was > 100 µM (inactive). For the same compound, the GI50 [17] was > 71.4 µM (inactive), the GI50 [18] was > 100 µM (inactive) and the GI50 [19] was > 100 µM (inactive). The GI50 [21] was > 33.5 µM (inactive), the GI50 [22] was > 100 µM (inactive) and the GI50 [23] was > 100 µM (inactive). For the same compound, the GI50 [24] was > 100 µM (inactive), the GI50 [25] was > 100 µM (inactive) and the GI50 [26] was > 100 µM (inactive). The GI50 [27] was 6.93 µM (inactive), the GI50 [28] was > 100 µM (inactive) and the GI50 [29] was 97.3 µM (inactive). For the same compound, the GI50 [30] was > 68.9 µM (inactive), the GI50 [31] was 49.4 µM (inactive) and the GI50 [32] was > 100 µM (inactive). For the same compound, the GI50 [33] was 64.4 µM (inactive), the GI50 [34] was greater than 100 µM and the GI50 [35] was > 100 µM (inactive). For the same compound, the GI50 [36] was > 100 µM (inactive), the GI50 [37] was > 100 µM (inactive) and the GI50 [38] was > 100 µM (inactive). The GI50 [39] was > 100 µM (inactive), the GI50 [40] was > 100 µM (inactive) and the GI50 [41] was > 100 µM (inactive). The GI50 [42] was > 30.5 µM (inactive), the GI50 [43] was 47.1 µM (inactive) and the GI50 [44] was > 100 µM (inactive). For the same compound, the GI50 [46] was > 100 µM (inactive), the GI50 [47] was > 100 µM (inactive) and the GI50 [48] was > 100 µM (inactive). For the same compound, the GI50 [49] was > 100 µM (inactive), the GI50 [50] was > 100 µM (inactive) and the GI50 [51] was > 100 µM (inactive). For the same compound, the GI50 [52] was > 100 µM (inactive), the GI50 [53] was > 100 µM (inactive) and the GI50 [54] was > 88.5 µM (inactive). For the same compound, the GI50 [55] was > 100 µM (inactive), the GI50 [56] was > 100 µM (inactive) and the GI50 [57] was > 100 µM (inactive). For the same compound, the GI50 [58] was > 100 µM (inactive).
